From patent US9630941B2 (priority 2008, dated 2017)
Entries after “also recorded” stand apart in the source; their conditions may differ.

What was measured:
[1] = Aqueous solubility, pH dependent; assay type: physicochemical
[2] = Chemical stability pH dependent at 25° C.; assay type: physicochemical
Procedure: B. Chemical Stability pH Dependent at 25° C.

[3] = Thermal stability, 120° C. for 10 min; assay type: physicochemical; conditions: for Drug remaining (%): % of initial
Procedure: C. Thermal Stability—120° C. for 10 min.

[4] = Plasma THC from HME buccal patches in swine model; assay type: in vivo; conditions: swine
Procedure: THC was used as control formulation. Plasma was sampled from each animal at predetermined times and the amount of THC in the plasma was determined.
FIG. 20: Plasma THC concentrations as a function of time from THC-Val-HS loaded HME buccal patches. Data represents the mean value from 4 pigs. The animals were maintained under anesthesia for the first 4 hours and were then allowed to come out of anesthesia and given access to food and water.
A dose dependent plasma concentration time profile was then evaluated.
Plasma THC concentrations as a function of time and dose from THC-Val-HS loaded HME patches. Data represents the mean value. The animals for maintained under anesthesia for the first 4 hours and were then allowed to come out of anesthesia and given access to food and water.

[5] = system: intraocular pressure (IOP) induced model of glaucoma; assay: Rabbit glaucoma model, IOP lowering after topical instillation; conditions: THC in Tocrisolve, 50 μL topical
[6] = In vivo ocular bioavailability of THC after topical formulations; conditions: for concentration at 1 h: male, New Zealand albino, rabbit, topical
[7] = Bioreversion: plasma stability, porcine plasma; assay type: in vitro ADME
[8] = Porcine buccal tissue homogenate stability; assay type: in vitro ADME; conditions: protein concentration 2 mg/ml
Procedure: (§1) b. Porcine Buccal Tissue Homogenate Stability
(§2) Protein Concentration 2 mg/ml

[9] = Control (IPBS) stability for the buccal homogenate study; assay type: physicochemical
Procedure: as §1, §2

CCCCCc1cc(O)c2c(c1)OC(C)(C)C1CCC(C)=CC21 (stereo not shown) [THC, Δ^9-Tetrahydrocannabinol, reference compound]
solubility ([1]; aqueous medium at pH 2, pH 2, aqueous buffer): 0.95 µg/mL | solubility ([1]; aqueous medium at pH 3, pH 3, aqueous buffer): 2.23 µg/mL | solubility ([1]; aqueous medium at pH 4, pH 4, aqueous buffer): 1.27 µg/mL | solubility ([1]; aqueous medium at pH 5, pH 5, aqueous buffer): 2.23 µg/mL | solubility ([1]; aqueous medium at pH 6, pH 6, aqueous buffer): 2.23 µg/mL | solubility ([1]; aqueous medium at pH 7, pH 7, aqueous buffer): 2.23 µg/mL | solubility ([1]; aqueous medium at pH 8, pH 8, aqueous buffer): 2.23 µg/mL | solubility ([1]; aqueous medium, pH 3, aqueous buffer): 2.23 µM | solubility ([1]; aqueous medium, pH 4, aqueous buffer): 1.27 µM | solubility ([1]; aqueous medium, pH 5, aqueous buffer): 2.23 µM | solubility ([1]; aqueous medium, pH 6, aqueous buffer): 2.23 µM | solubility ([1]; aqueous medium, pH 7, aqueous buffer): 2.23 µM | solubility ([1]; aqueous medium, pH 8, aqueous buffer): 2.23 µM | solubility ([1]; pH 2, aqueous buffer): 0.95 µM | solubility ([1]; water): 2.23 µM | solubility ([1]; water, H20): 2.23 µg/mL | First order rate constant ([2]; Buffer pH 5.0, 25° C.): 0.017 h⁻¹ | First order rate constant ([2]; Buffer pH 7.0, 25° C.): 0.0098 h⁻¹ | Drug loading (%) [3]: 85.38 ± 7.25% | CBN content of the sample after heating ([3]; 120° C. for 10 min): 53.85 ± 1.60 µg | Drug remaining ([3]; 120° C. for 10 min): 1214.10 ± 39.12 µg | Drug remaining (%) ([3]; 120° C. for 10 min): (95.05 ± 5.05) % | CBN content of the sample, initial ([3]; before heating): 56.76 ± 4.86 µg | Initial, μg (drug itself) ([3]; before heating): 1280.70 ± 108.77 µg | Transbuccal systemic bioavailability of THC ([4]; THC loaded HME patch): no bioavailability; also recorded: extremely poor | THC levels in plasma from transmucosal HME patches ([4]; buccal patch): No THC levels were detected | maximum observed effect, drop in IOP from baseline [5]: 40% | time for IOP to return to 90% of baseline [5]: ≤ 2 h | time to maximum effect post topical application [5]: ≤ 30 min | THC concentrations in aqueous humor, iris-ciliary bodies / anterior segment ocular tissues ([6]; 1 hour post topical application): not observed | concentration at 1 h ([6]; cornea, 50 μL of 0.1% w/v THC): 1380 ng/g | concentration at 1 h ([6]; cornea, 50 μL of 0.37% w/v THC): 6010 ng/g | concentration at 1 h ([6]; sclera, 50 μL of 0.1% w/v THC): 416 ng/g | concentration at 1 h ([6]; sclera, 50 μL of 0.37% w/v THC): 684 ng/g

CCCCCc1cc(OC(=O)[C@@H](N)CCC(N)=O)c2c(c1)OC(C)(C)[C@@H]1CCC(C)=C[C@@H]21 [THC-Glutaminate (9), Δ^9-THC-glutaminate]
Aqueous Solubility ([1]; H20): 1.61 ± 0.76 µg/mL | Aqueous Solubility ([1]; Water): 3.63 ± 1.72 µM | Aqueous Solubility ([1]; pH 1.2): 59.55 ± 0.02 µg/mL | Aqueous Solubility ([1]; pH 1.2, listed as THC-Glutamine): 134.25 ± 0.05 µM | Aqueous Solubility ([1]; pH 2): 162.82 ± 14.39 µg/mL | Aqueous Solubility ([1]; pH 2, listed as THC-Glutamine): 367.06 ± 32.44 µM | Aqueous Solubility ([1]; pH 3): 46.29 ± 1.13 µg/mL | Aqueous Solubility ([1]; pH 3, listed as THC-Glutamine): 104.36 ± 2.55 µM | Aqueous Solubility ([1]; pH 4): 22.24 ± 2.20 µg/mL | Aqueous Solubility ([1]; pH 4, listed as THC-Glutamine): 50.13 ± 4.97 µM | Aqueous Solubility ([1]; pH 5): 5.76 ± 0.02 µg/mL | Aqueous Solubility ([1]; pH 5, listed as THC-Glutamine): 12.99 ± 0.04 µM | Aqueous Solubility ([1]; pH 6): 2.15 ± 0.32 µg/mL | Aqueous Solubility ([1]; pH 6, listed as THC-Glutamine): 4.84 ± 0.72 µM | Aqueous Solubility ([1]; pH 7): 0.52 ± 0.06 µg/mL | Aqueous Solubility ([1]; pH 7, listed as THC-Glutamine): 1.18 ± 0.14 µM | Aqueous Solubility ([1]; pH 8): 0.34 ± 0.33 µg/mL | Aqueous Solubility ([1]; pH 8, listed as THC-Glutamine): 0.76 ± 0.74 µM | Aqueous Solubility ([1]; pH 9): 0.16 ± 0.02 µg/mL | Aqueous Solubility ([1]; pH 9, listed as THC-Glutamine): 0.35 ± 0.04 µM | First order rate constant ([2]; Buffer pH 5.0, 25° C.): 70.23 ± 0.92 ×10^−3 h^−1 | First order rate constant ([2]; Buffer pH 7.0, 25° C.): 153.42 ± 4.26 ×10^−3 h^−1 | First order rate constant ([2]; Buffer pH 9.0, 25° C.): 756.35 ± 106.61 ×10^−3 h^−1 | First order rate constant ([2]; Water, 25° C.): 32.72 ± 15.19 ×10^−3 h^−1 | Drug loading (%) [3]: 63.41 ± 2.57% | Drug remaining ([3]; 120° C. for 10 min): 721.31 ± 73.76 µg | Drug remaining (%) ([3]; 120° C. for 10 min): (75.75 ± 4.69) % | Initial, μg (drug itself) ([3]; before heating): 951.08 ± 38.55 µg | K [7]: 53.41 ± 5.84 ×10^−2 min^−1 | T1/2 [7]: 1.31 ± 0.14 min | K [8]: 40.41 ± 3.30 ×10^−3 min^−1 | T1/2 [8]: 17.21 ± 1.40 min | K [9]: 26.30 ± 0.14 ×10^−3 min^−1
